Results as given in PubChem BioAssay AID192 (DTP/NCI, 2004).
Several values for one entry are separate records, joined by “and”; a condition that tells them apart may be missing. Equal values may be shown once. Toxic doses and inconclusive results are not listed. How the source made its calls: active means survival T/C of 150% or more; inactive means T/C below 125% in these data. Peptide text beside a SMILES is read from it. * marks the point of attachment. Cbz = O=C(OCc1ccccc1)*; CH2Cl = ClC*

Test system: BDF1 mice, B16 melanoma ip, median survival T/C
Assay: NCI In Vivo Anticancer Drug Screen. Data for tumor model B16 Melanoma (intraperitoneal) in B6D2F1 (BDF1) mice
Settings: endpoint: median survival time, higher = longer survival
Protocol: The antitumor activity of compounds was measured in mice bearing transplantable tumors. Survival or tumor size were measured and the results are expressed as the measurement made in the treated group (T) divided by the measurement made in the vehicle treated control group (C). The tumor model used in this assay is B16 Melanoma (intraperitoneal) in B6D2F1 (BDF1) mice

[1] = dose: 25.0 mg/kg/injection, schedule: Q01DX009 (ip), vehicle: saline with Tween-80
[2] = dose: 50.0 mg/kg/injection, schedule: Q01DX009 (ip), vehicle: saline with Tween-80
[3] = dose: 3.0 mg/kg/injection, schedule: Q01DX009 (ip), vehicle: saline with Tween-80
[4] = dose: 3.12 mg/kg/injection, schedule: Q01DX009 (ip), vehicle: saline with Tween-80
[5] = dose: 25.0 mg/kg/injection, schedule: Q01DX009 (ip), vehicle: Klucel (hydroxypropylcellulose) (HPC)
[6] = dose: 50.0 mg/kg/injection, schedule: Q01DX009 (ip), vehicle: Klucel (hydroxypropylcellulose) (HPC)
[7] = dose: 6.25 mg/kg/injection, schedule: Q01DX009 (ip), vehicle: saline
[8] = dose: 25.0 mg/kg/injection, schedule: Q01DX009 (ip), vehicle: saline
[9] = dose: 100.0 mg/kg/injection, schedule: Q01DX009 (ip), vehicle: other
[10] = dose: 200.0 mg/kg/injection, schedule: Q01DX009 (ip), vehicle: other
[11] = dose: 100.0 mg/kg/injection, schedule: Q01DX009 (ip), vehicle: saline with Tween-80
[12] = dose: 75.0 mg/kg/injection, schedule: Q01DX009 (ip), vehicle: Klucel (hydroxypropylcellulose) (HPC)
[13] = dose: 100.0 mg/kg/injection, schedule: Q01DX009 (ip), vehicle: Klucel (hydroxypropylcellulose) (HPC)
[14] = dose: 200.0 mg/kg/injection, schedule: Q01DX009 (ip), vehicle: Klucel (hydroxypropylcellulose) (HPC)
[15] = dose: 6.25 mg/kg/injection, schedule: Q01DX009 (ip), vehicle: saline with Tween-80
[16] = dose: 12.5 mg/kg/injection, schedule: Q01DX009 (ip), vehicle: saline with Tween-80
[17] = dose: 100.0 mg/kg/injection, schedule: Q04DX003 (ip), vehicle: Klucel (hydroxypropylcellulose) (HPC)

Measured: T/C

COc1ccc(NC(=O)Nc2cccc(Cl)c2C)cc1
inactive: [1] 100 % of control | [2] 102 % of control

CC[CH2][Pb]([CH2]CC)([CH2]CC)[O]C(=O)C(F)(F)F
inactive: dose: 0.39 mg/kg/injection, schedule: Q01DX009 (ip), vehicle: saline with Tween-80 93 % of control | dose: 0.78 mg/kg/injection, schedule: Q01DX009 (ip), vehicle: saline with Tween-80 111 % of control | dose: 1.5 mg/kg/injection, schedule: Q01DX009 (ip), vehicle: saline with Tween-80 104 % of control | [3] 98 % of control | [4] 86 % of control

COc1cc2c(c(OC)c1OC)-c1ccc(OC)c(=O)cc1[C@@H](N)CC2
inactive: dose: 0.31 mg/kg/injection, schedule: Q01DX009 (ip), vehicle: saline 120 % of control | dose: 2.5 mg/kg/injection, schedule: Q01DX009 (ip), vehicle: Klucel (hydroxypropylcellulose) (HPC) 89 % of control | dose: 5.0 mg/kg/injection, schedule: Q01DX009 (ip), vehicle: Klucel (hydroxypropylcellulose) (HPC) 110 % of control

Nc1nc(N)c(-c2ccc(Cl)c(Cl)c2)c(CP(Cl)(Cl)(Cl)Br)n1
inactive: dose: 6.3 mg/kg/injection, schedule: Q01DX009 (ip), vehicle: Klucel (hydroxypropylcellulose) (HPC) 112 % of control | dose: 12.5 mg/kg/injection, schedule: Q01DX009 (ip), vehicle: Klucel (hydroxypropylcellulose) (HPC) 111 % of control | [5] 115 % of control | [6] 123 % of control

CNCCCN(C)CCCNC
inactive: [7] 121 % of control | dose: 12.5 mg/kg/injection, schedule: Q01DX009 (ip), vehicle: saline 109 % of control | [8] 96 % of control and 111 % of control

CCCCCCCCCCCC(=O)CC
inactive: [9] 96 % of control | [10] 87 % of control

CC1(c2ccccc2)C(C#N)C(=O)NC(=O)C1C#N (centres undefined)
inactive: [2] 89 % of control | [11] 89 % of control | dose: 200.0 mg/kg/injection, schedule: Q01DX009 (ip), vehicle: saline with Tween-80 89 % of control

CCOC(=O)C(NC(N)=O)C(=O)OCC
inactive: dose: 50.0 mg/kg/injection, schedule: Q01DX009 (ip), vehicle: other 104 % of control | [9] 104 % of control | [10] 103 % of control | dose: 400.0 mg/kg/injection, schedule: Q01DX009 (ip), vehicle: other 104 % of control

O=C1CCC(=O)N1CO
inactive: dose: 37.5 mg/kg/injection, schedule: Q01DX009 (ip), vehicle: saline 107 % of control and 112 % of control | dose: 75.0 mg/kg/injection, schedule: Q01DX009 (ip), vehicle: saline 104 % of control and 107 % of control | dose: 150.0 mg/kg/injection, schedule: Q01DX009 (ip), vehicle: saline 109 % of control

CC[N+](CC)(CC)CCC[n+]1ccc(/C=N\O)cc1
inactive: [8] 111 % of control | dose: 50.0 mg/kg/injection, schedule: Q01DX009 (ip), vehicle: saline 111 % of control | dose: 100.0 mg/kg/injection, schedule: Q01DX009 (ip), vehicle: saline 111 % of control

CC(C)CC(NC(=O)OCc1ccccc1)C(=O)NC(Cc1ccccc1)C(=O)CCl (stereo not drawn) (Cbz-Leu-Phe-CH2Cl; configuration not given here)
inactive: dose: 1.56 mg/kg/injection, schedule: Q01DX009 (ip), vehicle: saline 99 % of control | dose: 3.12 mg/kg/injection, schedule: Q01DX009 (ip), vehicle: saline 99 % of control | [7] 97 % of control

Cc1cc(Cl)ccc1NC(=O)Nc1ccccc1Cl
inactive: dose: 18.8 mg/kg/injection, schedule: Q01DX009 (ip), vehicle: Klucel (hydroxypropylcellulose) (HPC) 104 % of control | dose: 37.5 mg/kg/injection, schedule: Q01DX009 (ip), vehicle: Klucel (hydroxypropylcellulose) (HPC) 91 % of control | [12] 94 % of control

CCCCCCC(=O)C(CCCC)(C(=O)OCC)C(=O)OCC
inactive: [13] 89 % of control

CCOc1ccccc1NC(=O)CC(C)=O
inactive: [13] 100 % of control | [14] 97 % of control

Cc1cccc(NS(=O)(=O)c2ccc(Cl)cc2)c1C
inactive: [12] 91 % of control | dose: 150.0 mg/kg/injection, schedule: Q01DX009 (ip), vehicle: Klucel (hydroxypropylcellulose) (HPC) 95 % of control | dose: 300.0 mg/kg/injection, schedule: Q01DX009 (ip), vehicle: Klucel (hydroxypropylcellulose) (HPC) 90 % of control

Cc1n[nH]c2ccc([N+](=O)[O-])cc2c1=O
inactive: [15] 97 % of control | [16] 90 % of control | [1] 95 % of control

O=C1NC(c2ccccc2)N=C2Oc3ccccc3C=C12 (centres undefined)
inactive: dose: 1.56 mg/kg/injection, schedule: Q01DX009 (ip), vehicle: saline with Tween-80 107 % of control | [4] 109 % of control and 113 % of control | [15] 108 % of control and 117 % of control | [16] 117 % of control | [1] 117 % of control

O=C(NCCCl)N(c1ccccc1)c1cccc(C(F)(F)F)c1
inactive: [17] 114 % of control | dose: 200.0 mg/kg/injection, schedule: Q04DX003 (ip), vehicle: Klucel (hydroxypropylcellulose) (HPC) 105 % of control | dose: 400.0 mg/kg/injection, schedule: Q04DX003 (ip), vehicle: Klucel (hydroxypropylcellulose) (HPC) 106 % of control

O=C(CC(=O)C(F)(F)C(F)(F)C(F)(F)F)c1csc2ccccc12
inactive: [1] 97 % of control | [2] 100 % of control | [11] 92 % of control

C=C1CCN2CCCC12 (centres undefined)
inactive: dose: 10.0 mg/kg/injection, schedule: Q01DX009 (ip), vehicle: saline 107 % of control | dose: 20.0 mg/kg/injection, schedule: Q01DX009 (ip), vehicle: saline 104 % of control | dose: 40.0 mg/kg/injection, schedule: Q01DX009 (ip), vehicle: saline 100 % of control | dose: 80.0 mg/kg/injection, schedule: Q01DX009 (ip), vehicle: saline 95 % of control

CCC[CH2][Sn]1([CH2]CCC)[O]OC(c2ccccc2)[O]1 (centres undefined)
inactive: dose: 0.19 mg/kg/injection, schedule: Q01DX009 (ip), vehicle: Klucel (hydroxypropylcellulose) (HPC) 98 % of control | dose: 0.38 mg/kg/injection, schedule: Q01DX009 (ip), vehicle: Klucel (hydroxypropylcellulose) (HPC) 87 % of control | dose: 0.75 mg/kg/injection, schedule: Q01DX009 (ip), vehicle: Klucel (hydroxypropylcellulose) (HPC) 107 % of control | dose: 1.5 mg/kg/injection, schedule: Q01DX009 (ip), vehicle: Klucel (hydroxypropylcellulose) (HPC) 102 % of control | dose: 3.0 mg/kg/injection, schedule: Q01DX009 (ip), vehicle: Klucel (hydroxypropylcellulose) (HPC) 101 % of control | [3] 102 % of control

CCC(C)(O)CCc1ccccc1 (centres undefined)
inactive: [13] 113 % of control | [14] 113 % of control | dose: 400.0 mg/kg/injection, schedule: Q01DX009 (ip), vehicle: Klucel (hydroxypropylcellulose) (HPC) 100 % of control

CCCCc1ccc2nc(NC(=O)OC)[nH]c2c1
inactive: [15] 106 % of control | [16] 112 % of control | [1] 115 % of control

CN(Cc1ccccc1)Cc1ccccc1
inactive: [5] 96 % of control | dose: 25.0 mg/kg/injection, schedule: Q04DX003 (ip), vehicle: Klucel (hydroxypropylcellulose) (HPC) 100 % of control | [6] 100 % of control | dose: 50.0 mg/kg/injection, schedule: Q04DX003 (ip), vehicle: Klucel (hydroxypropylcellulose) (HPC) 97 % of control | [13] 100 % of control | [17] 97 % of control

O=c1[nH]c2cc(Cl)ccc2c(CCl)c1Cl
inactive: [1] 88 % of control and 95 % of control | [2] 88 % of control and 95 % of control | [11] 93 % of control and 100 % of control

Cc1cc(=O)[nH]c(N/N=C/c2cc(Cl)ccc2O)n1
inactive: [16] 93 % of control | [1] 90 % of control | [2] 86 % of control

O=C(O)/C=C/c1ccc(/C=C/C(=O)O)cc1
inactive: dose: 100.0 mg/kg/injection, schedule: Q04DX003 (ip), vehicle: saline with Tween-80 111 % of control | dose: 200.0 mg/kg/injection, schedule: Q04DX003 (ip), vehicle: saline with Tween-80 102 % of control | dose: 400.0 mg/kg/injection, schedule: Q04DX003 (ip), vehicle: saline with Tween-80 100 % of control
